Reference: patent US5449676A, “Pyridazines” (priority 1991, dated 1995)
Where two headings read alike, the source gives them in different places.

What was measured:
[1] = system: histamine-induced bronchospasm; assay: histamine-induced bronchospasm in anesthetized guinea pigs; assay type: in vivo; details: 20 μmol/kg; for inhibition in vivo at 20 µmol/kg: Cavia porcellus, iv
Protocol: One histamine spasm before administration of the substance was compared with several histamine spasms after administration of the substance. The test substances were administered intravenously (i.v.) and/or intrajejunally (i.j.).

[2] = system: acetylcholine-induced bronchospasm; assay: protective effect against acetylcholine-induced bronchospasm in conscious guinea pigs; assay type: in vivo; details: oral, 30 minutes after administration, percentage of protected animals
Protocol: In addition, the bronchospasmolytic effect was tested on the "protective effect against acetylcholine-induced bronchospasm in conscious guinea pigs" model:
Guinea pigs (250-350 g) are exposed in a closed Plexiglass cylinder (volume […] ) to an acetylcholine mist (0.06% in 0.9% sodium chloride solution; Heyer Use 77 ultrasonic atomizer) before administration of the substance and twice at an interval of 20 minutes after administration of the substance. The time from the start of atomization to the onset of marked breathing difficulties (in some cases hypoxic convulsion in the lateral position) is measured and called the latency time. An increase in the latency time after administration of the substance to at least three times the average latency time before administration of the substance is regarded as a protective effect, and the number of protected animals in the group is determined. […]
[…] After 30 minutes, the animals are again exposed to the acetylcholine mist and the latency times are measured. An increase in the latency time to at least three times the length is regarded as a protective effect.

PDE III = target: T1, PDE III (Homo sapiens, UniProt Q14432); assay: inhibition of PDE III isolated from human platelets; assay type: biochemical; details: negative logarithm of IC50, cAMP 0.5 μmol/l; for IC50: read-out: PDE III hum. platelets -lg[IC50 ] (converted)
T1 construct: PDE III isolated from human platelets; from tissue; host or cells: human platelets
T1 sequence (Q14432 whole entry): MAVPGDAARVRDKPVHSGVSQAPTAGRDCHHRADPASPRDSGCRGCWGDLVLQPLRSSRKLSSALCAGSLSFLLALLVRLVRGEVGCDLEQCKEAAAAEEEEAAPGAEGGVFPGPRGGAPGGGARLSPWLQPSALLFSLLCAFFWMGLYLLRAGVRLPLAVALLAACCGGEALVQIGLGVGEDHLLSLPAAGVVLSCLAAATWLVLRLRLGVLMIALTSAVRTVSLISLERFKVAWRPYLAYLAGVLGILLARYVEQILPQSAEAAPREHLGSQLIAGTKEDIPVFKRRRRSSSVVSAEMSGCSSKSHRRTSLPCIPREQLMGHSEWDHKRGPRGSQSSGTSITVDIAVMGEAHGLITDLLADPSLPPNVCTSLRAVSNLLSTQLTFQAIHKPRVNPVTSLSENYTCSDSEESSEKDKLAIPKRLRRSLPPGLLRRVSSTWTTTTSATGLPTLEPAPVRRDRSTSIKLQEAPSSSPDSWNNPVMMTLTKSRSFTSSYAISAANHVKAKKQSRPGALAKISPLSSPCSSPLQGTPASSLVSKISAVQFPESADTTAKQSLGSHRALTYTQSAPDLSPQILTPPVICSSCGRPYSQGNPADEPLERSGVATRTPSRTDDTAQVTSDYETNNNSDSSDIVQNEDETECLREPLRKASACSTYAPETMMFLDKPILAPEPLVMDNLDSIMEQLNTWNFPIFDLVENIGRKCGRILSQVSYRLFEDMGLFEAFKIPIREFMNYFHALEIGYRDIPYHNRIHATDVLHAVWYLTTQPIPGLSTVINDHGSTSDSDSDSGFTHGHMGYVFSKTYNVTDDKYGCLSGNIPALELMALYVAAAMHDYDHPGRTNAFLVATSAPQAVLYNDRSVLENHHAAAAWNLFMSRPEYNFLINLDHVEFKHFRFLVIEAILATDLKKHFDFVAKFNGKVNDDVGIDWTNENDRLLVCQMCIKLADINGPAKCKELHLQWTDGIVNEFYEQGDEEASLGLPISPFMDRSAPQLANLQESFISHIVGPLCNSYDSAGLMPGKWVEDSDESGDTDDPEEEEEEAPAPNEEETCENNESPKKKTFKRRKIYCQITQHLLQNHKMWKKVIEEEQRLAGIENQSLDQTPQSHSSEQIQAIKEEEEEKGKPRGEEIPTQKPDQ
Description: (§1) The specific inhibition of phosphodiesterase IV (PDE IV=high-affinity cAMP-PDE which cannot be inhibited by cGMP, rolipram-sensitive) is regarded as particularly indicative of an expected bronchospasmolytic and/or antiinflammatory effect. The specificity of the inhibition is moreover described by the ratio [IC50 ]PDE-III /[IC50 ]PDE-IV (PDE III=high-affinity cAMP-PDE which can be inhibited by cGMP) [H. Hidaka et al., Adv. Cycl. Nucl. Res. 13, 145 (1984); TiPS 5, 237 (1984); R. Weishaar et al., J. Med. Chem. 28, (1985); S. A. Harrison et al., Molec. Pharmac. 29, 506 (1986); J. Klein-Tebbe et al., Allergologie 12, 12 (1989); C. Schudt et al., Allergologie 12, 12, (1989); C. Schudt et al., Agents and Action 1991 in press; C. D. Nicholson et al., TiPS 12, (1), 19 (1991)].
(§2) For this reason, the PDE inhibition by the compounds according to the invention was determined on a PDE III isolated from human platelets and on PDE IV isolated from human polymorphonuclear neutrophilic cells (PMNs) and from the dog trachea. Phosphodiesterases III and IV are isolated by chromatography as described by Polson et al., Biochem. Pharmacol. 31, 3403-3406 (1982).
(§3) The substances are dissolved and diluted further in DMSO. 2.1 μl samples from a series of solutions diluted up to 100 fold are mixed with 212 μl of reaction mixture. The reaction mixture contains Hepes (100 mmol/l), DTE (5 mmol/l), MgCl2 (5 mmol/l), CaCl2 (10 μmol/l), BSA fraction V 0.5 mg, ml, cAMP 0.5 μmol/l, 2,8-^3 H-cAMP 250,000 cpm/ml (0.3 μCi/ml, S.A. […]), SV (snake venom) 25 μg/212 μl of test mixture.

PDE IV [3] = assay: inhibition of PDE IV isolated from dog trachea; assay type: biochemical; details: for PDE IV dog trachea -lg[IC50 ]: negative logarithm of IC50, cAMP 0.5 μmol/l; for [IC50 ] PDE III/[IC50 ] PDE IV dog tr.: selectivity ratio, PDE III hum. platelets vs PDE IV dog trachea
Description: as §1, §2, §3

PDE IV [4] = assay: inhibition of PDE IV isolated from human polymorphonuclear neutrophilic cells (PMNs); assay type: biochemical; details: for PDE IV hum. PMNs -lg[IC50 ]: negative logarithm of IC50, cAMP 0.5 μmol/l; for [IC50 ] PDE III/[IC50 ] PDE IV PMNs: selectivity ratio, PDE III hum. platelets vs PDE IV hum. PMNs
Description: as §1, §2, §3

tracheal rings = assay: bronchospasmolytic effect on the chain of tracheal rings from guinea pigs in vitro; assay type: cell-based; details: for EC50: Cavia porcellus, negative logarithm of EC50 mol/l, 50% of maximum achievable relaxation, read-out: -lg[EC50 ] (converted); for [EC50 ] theophylline/[EC50 ] substance: ratio of EC50 values, theophylline vs substance
Protocol: The bronchospasmolytic effect of the compounds on the chain of tracheal rings from guinea pigs was tested in vitro as follows:
Thus, a complete dose-effect plot for the test substance is obtained over a period of 20 to 30 minutes. The particular relaxation is expressed as a percentage fraction of the maximum relaxation achievable by administration of (-)isoprenaline (10^-6 mol/l).

[5] = Cavia porcellus, 0.5 h, 100 μmol/kg
[6] = after 1 h, read-out: % inhibition after 1 h of the histamine-induced decrease in Vmax
[7] = average 0-1 h after administration, read-out: % inhibition (0-1 h) of the histamine-induced decrease in Vmax

## 3-amino-6-(3-cyclopentyloxy-4methoxyphenyl)pyridazine [Serial No. 6]
[1]; i.v., after 1 h
  % inhibition after 1 h of the histamine-induced decrease in Vmax: 20%
[1]; i.v., average 0-1 h after administration
  % inhibition (0-1 h) of the histamine-induced decrease in Vmax: 34%
[2]; 30 μmol/kg
  % protective effect: 50%
[2]; 100 μmol/kg
  % protective effect: 70%
[2]; 300 μmol/kg
  % protective effect: 80%
PDE III
  PDE III hum. platelets -lg[IC50 ]: < 4.0
PDE IV [3]
  PDE IV dog trachea -lg[IC50 ]: 6.48
  [IC50 ] PDE III/[IC50 ] PDE IV dog tr.: > 304
PDE IV [4]
  PDE IV hum. PMNs -lg[IC50 ]: 6.18
  [IC50 ] PDE III/[IC50 ] PDE IV PMNs: > 151

## COc1ccc(-c2ccc(N)nn2)cc1OCC(C)C [Serial No. 2, 3-amino-6-[4-methoxy-3-(2-methylpropoxy)phenyl]pyridazine]
[2]; Cavia porcellus, 0.5 h, 30 μmol/kg
  responders at 30 µmol/kg: 50%
[2]; [5]
  responders at 100 µmol/kg: 80%
PDE III
  IC50: 209 µM
PDE IV [3]
  PDE IV dog trachea -lg[IC50 ]: < 5.0
  [IC50 ] PDE III/[IC50 ] PDE IV dog tr.: < 20.9

## COc1ccc(-c2ccc(N)nn2)cc1OC(C)C [Serial No. 3, 3-amino-6-[4-methoxy-3-(1-methylethoxy)phenyl]pyridazine]
PDE III
  PDE III hum. platelets -lg[IC50 ]: 3.66
PDE IV [3]
  PDE IV dog trachea -lg[IC50 ]: 5.30
  [IC50 ] PDE III/[IC50 ] PDE IV dog tr.: 43.7

## COc1ccc(-c2ccc(N)nn2)cc1OC1CCCCC1 [Serial No. 7, 3-amino-6-(3-cyclohexyloxy-4-methoxyphenyl)pyridazine]
PDE III
  IC50: 60.3 µM
PDE IV [3]
  PDE IV dog trachea -lg[IC50 ]: 5.17
  [IC50 ] PDE III/[IC50 ] PDE IV dog tr.: 8.9

## COc1ccc(-c2ccc(N)nn2)cc1OC1CCCCCC1 [Serial No. 8, 3-amino-6-(3-cycloheptyloxy-4-methoxyphenyl)pyridazine]
PDE III
  IC50: 77.6 µM
PDE IV [3]
  PDE IV dog trachea -lg[IC50 ]: 5.37
  [IC50 ] PDE III/[IC50 ] PDE IV dog tr.: 18.2

## CCOc1ccc(-c2ccc(N)nn2)cc1OCC(C)C [compound 9]
Tracheal rings
  EC50: 9.77 µM
  [EC50 ] theophylline/[EC50 ] substance: 13.8
[1]; [6]
  inhibition in vivo at 20 µmol/kg: 20%
[1]; [7]
  inhibition in vivo at 20 µmol/kg: 16%
[2]; [5]
  responders at 100 µmol/kg: 65%
PDE III
  IC50: 126 µM
PDE IV [3]
  PDE IV dog trachea -lg[IC50 ]: 5.68
  [IC50 ] PDE III/[IC50 ] PDE IV dog tr.: 60.2

## CCOc1cc(-c2ccc(N)nn2)ccc1OC(F)F [compound 10]
Tracheal rings
  EC50: 8.32 µM
  [EC50 ] theophylline/[EC50 ] substance: 16.2
[1]; [6]
  inhibition in vivo at 20 µmol/kg: 44%
[1]; [7]
  inhibition in vivo at 20 µmol/kg: 38%
[2]; [5]
  responders at 100 µmol/kg: 50%
PDE III
  IC50: 224 µM
PDE IV [3]
  PDE IV dog trachea -lg[IC50 ]: 5.37
  [IC50 ] PDE III/[IC50 ] PDE IV dog tr.: 52.5

## COc1cc(-c2ccc(N)nn2)ccc1OC(F)F [compound 11]
Tracheal rings
  EC50: 4.9 µM
  [EC50 ] theophylline/[EC50 ] substance: 27.6
[1]; [6]
  inhibition in vivo at 20 µmol/kg: 26%
[1]; [7]
  inhibition in vivo at 20 µmol/kg: 30%
[2]; [5]
  responders at 100 µmol/kg: 80%
PDE III
  IC50: 195 µM
PDE IV [3]
  PDE IV dog trachea -lg[IC50 ]: 5.09
  [IC50 ] PDE III/[IC50 ] PDE IV dog tr.: 22.9

## CCOc1ccc(-c2ccc(N)nn2)cc1OC(F)F [compound 12]
Tracheal rings
  EC50: 4.47 µM
  [EC50 ] theophylline/[EC50 ] substance: 30.2
[2]; [5]
  responders at 100 µmol/kg: 50%
PDE III
  IC50: 316 µM
PDE IV [3]
  PDE IV dog trachea -lg[IC50 ]: 4.42
  [IC50 ] PDE III/[IC50 ] PDE IV dog tr.: 9.6

## COc1ccc(-c2ccc(N)nn2)cc1OCC1CCC1 [compound 13]
[2]; [5]
  responders at 100 µmol/kg: 65%
PDE III
  IC50: 224 µM
PDE IV [3]
  PDE IV dog trachea -lg[IC50 ]: 4.88
  [IC50 ] PDE III/[IC50 ] PDE IV dog tr.: 17.0

## CCOc1cc(-c2ccc(N)[n+]([O-])n2)ccc1OC(F)F [compound 19]
Tracheal rings
  EC50: 0.151 µM
  [EC50 ] theophylline/[EC50 ] substance: 893
[1]; [6]
  inhibition in vivo at 20 µmol/kg: 81%
[1]; [7]
  inhibition in vivo at 20 µmol/kg: 71%
[2]; Cavia porcellus, 0.5 h, 4 μmol/kg
  responders at 4 µmol/kg: 50%
PDE III
  IC50: 63.1 µM
PDE IV [3]
  PDE IV dog trachea -lg[IC50 ]: 5.82
  [IC50 ] PDE III/[IC50 ] PDE IV dog tr.: 41.7
PDE IV [4]
  PDE IV hum. PMNs -lg[IC50 ]: 6.58
  [IC50 ] PDE III/[IC50 ] PDE IV PMNs: 240

## COc1cc(-c2ccc(N)[n+]([O-])n2)ccc1OC(F)F [compound 20]
Tracheal rings
  EC50: 0.447 µM
  [EC50 ] theophylline/[EC50 ] substance: 302
[1]; [6]
  inhibition in vivo at 20 µmol/kg: 48%
[1]; [7]
  inhibition in vivo at 20 µmol/kg: 40%
[2]; Cavia porcellus, 0.5 h, 2 μmol/kg
  responders at 2 µmol/kg: 50%
PDE III
  IC50: 14.8 µM
PDE IV [3]
  PDE IV dog trachea -lg[IC50 ]: 5.08
  [IC50 ] PDE III/[IC50 ] PDE IV dog tr.: 1.8
PDE IV [4]
  PDE IV hum. PMNs -lg[IC50 ]: 5.89
  [IC50 ] PDE III/[IC50 ] PDE IV PMNs: 11.5

## Nc1ccc(-c2ccc(OC(F)F)c(OCC3CC3)c2)n[n+]1[O-] [compound 26]
Tracheal rings
  EC50: 1 µM
  [EC50 ] theophylline/[EC50 ] substance: 135
[1]; [6]
  inhibition in vivo at 20 µmol/kg: 12%
[1]; [7]
  inhibition in vivo at 20 µmol/kg: 15%
[2]; Cavia porcellus, 0.5 h, 10 μmol/kg
  responders at 10 µmol/kg: 70%
PDE III
  IC50: 18.2 µM
PDE IV [4]
  PDE IV hum. PMNs -lg[IC50 ]: 7.48
  [IC50 ] PDE III/[IC50 ] PDE IV PMNs: 550
